From patent publication US7375079B2 (priority 1999, dated 2008)

Molecular target: BttxB (Clostridium botulinum, UniProt P10844)
Type: biochemical

Sequence of BttxB (P10844 2-441 limits assumed): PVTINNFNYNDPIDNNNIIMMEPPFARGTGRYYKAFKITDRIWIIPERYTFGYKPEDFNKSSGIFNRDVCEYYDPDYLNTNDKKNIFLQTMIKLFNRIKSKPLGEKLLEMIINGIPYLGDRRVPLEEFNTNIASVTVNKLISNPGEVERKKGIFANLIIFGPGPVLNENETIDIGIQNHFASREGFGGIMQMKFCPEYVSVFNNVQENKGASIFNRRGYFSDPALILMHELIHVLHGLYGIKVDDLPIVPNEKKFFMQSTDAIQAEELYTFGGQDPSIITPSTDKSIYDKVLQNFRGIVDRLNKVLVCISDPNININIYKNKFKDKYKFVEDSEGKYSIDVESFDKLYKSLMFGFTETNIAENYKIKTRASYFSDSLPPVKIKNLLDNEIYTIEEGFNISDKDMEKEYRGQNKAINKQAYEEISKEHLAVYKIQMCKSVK

CC(C)C[C@H](NC(=O)CNC(=O)[C@H](C)NC(=O)[C@H](CCCNC(=N)N)NC(=O)[C@H](CO)NC(=O)[C@H](CO)NC(=O)[C@H](CCCNC(=N)N)NC(=O)[C@@H](NC(=O)[C@H](CCCCN)NC(=O)[C@H](C)NC(=O)[C@H](CCCCN)NC(=O)[C@H](C)NC(=O)[C@H](CCCNC(=N)N)NC(=O)[C@@H](NC(=O)[C@H](CCCCN)NC(=O)CNC(=O)CNC(=O)[C@H](CCC(N)=O)NC(=O)[C@H](CCCCN)NC(=O)CNC(=O)[C@H](CCCNC(=N)N)NC(=O)CNC(=O)[C@H](C)N)C(C)C)[C@@H](C)O)C(=O)N[C@@H](CCC(N)=O)C(=O)N[C@@H](Cc1ccccc1)C(=O)N1CCC[C@H]1C(=O)N[C@H](C(=O)NCC(=O)N[C@@H](CCCNC(=N)N)C(=O)N[C@H](C(=O)N[C@@H](Cc1c[nH]cn1)C(=O)N[C@@H](CCCNC(=N)N)C(=O)N[C@@H](CC(C)C)C(=O)N[C@@H](CC(C)C)C(=O)N[C@@H](CCCNC(=N)N)C(=O)N[C@@H](CCCCN)C(=O)NCC(=O)N[C@@H](CC(N)=O)C(=O)N[C@@H](Cc1ccc(O)cc1)C(=O)O)C(C)C)C(C)C [B-I]
substrate of BttxB or not: not a substrate

AGRGKQGGKVRAKAKTRSSRAGLQFPVGRVHRLLRK [Peptide 36]
effectiveness as inhibitor of BttxB activity relative to B-I: about 50%

RPKPQQFFGLM [Substance P]
inhibition of BttxB (in words): inhibitor
